Assay results taken from patent US10370324B2, “Phenyl and pyridinyl hydroxamic acids” (Acetylon Pharmaceuticals, Inc., priority 2016, dated 2019).

Assays:
[1] = biological target: T1, HDAC1 (Homo sapiens, UniProt Q13547); experiment: HDAC enzyme assay, HDAC1; type: biochemical; conditions: 3.3 ng/ml enzyme, 16 μM tripeptide substrate; given as a range
T1 construct: purchased BPS Biosciences
Description: (§1) Compounds for testing were diluted in DMSO to 50 fold the final concentration and a ten-point three-fold dilution series was made. The compounds were diluted in assay buffer (50 mM HEPES, pH 7.4, 100 mM KCl, 0.001% Tween-20, 0.05% BSA, 20 ⊐M TCEP) to 6-fold their final concentration. The HDAC enzymes (purchased from BPS Biosciences) were diluted to 1.5-fold their final concentration in assay buffer. The tripeptide substrate and trypsin at 0.05 μM final concentration were diluted in assay buffer at 6-fold their final concentration. The final enzyme concentrations used in these assays were 3.3 ng/ml (HDAC1), 0.2 ng/ml (HDAC2), 0.08 ng/ml (HDAC3) and 2 ng/ml (HDAC6). The final substrate concentrations used were 16 μM (HDAC1), 10 μM (HDAC2), 17 μM (HDAC3) and 14 μM (HDAC6).
(§2) Five μL of compounds and 20 μL of enzyme were added to wells of a black, opaque 384 well plate in duplicate. Enzyme and compound were incubated together at room temperature for 10 minutes. Five μL of substrate was added to each well, the plate was shaken for 60 seconds and placed into a Victor 2 microtiter plate reader. The development of fluorescence was monitored for 60 min and the linear rate of the reaction was calculated. The IC50 was determined using Graph Pad Prism by a four parameter curve fit.

[2] = biological target: T2, HDAC2 (Homo sapiens, UniProt Q92769); experiment: HDAC enzyme assay, HDAC2; type: biochemical; conditions: 0.2 ng/ml enzyme, 10 μM tripeptide substrate; given as a range
T2 construct: purchased BPS Biosciences
T2 sequence (Q92769 whole entry): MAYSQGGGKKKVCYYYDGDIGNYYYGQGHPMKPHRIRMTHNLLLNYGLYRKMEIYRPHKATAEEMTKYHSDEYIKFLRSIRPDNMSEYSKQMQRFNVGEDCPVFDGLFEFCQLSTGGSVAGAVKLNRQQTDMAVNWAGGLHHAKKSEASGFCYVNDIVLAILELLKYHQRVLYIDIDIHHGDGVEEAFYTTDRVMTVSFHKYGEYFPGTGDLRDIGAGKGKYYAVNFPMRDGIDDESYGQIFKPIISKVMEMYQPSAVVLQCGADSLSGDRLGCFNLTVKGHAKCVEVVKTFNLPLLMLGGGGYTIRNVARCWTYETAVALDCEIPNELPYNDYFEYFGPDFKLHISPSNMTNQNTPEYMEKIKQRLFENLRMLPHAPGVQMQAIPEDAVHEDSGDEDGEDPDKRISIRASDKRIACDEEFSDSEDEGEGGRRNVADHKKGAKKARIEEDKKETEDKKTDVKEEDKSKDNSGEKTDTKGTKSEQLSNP
Description: as §1, §2

[3] = biological target: T3, HDAC3 (Homo sapiens, UniProt O15379); experiment: HDAC enzyme assay, HDAC3; type: biochemical; conditions: 0.08 ng/ml enzyme, 17 μM tripeptide substrate; given as a range
T3 construct: purchased BPS Biosciences
T3 sequence (O15379 whole entry): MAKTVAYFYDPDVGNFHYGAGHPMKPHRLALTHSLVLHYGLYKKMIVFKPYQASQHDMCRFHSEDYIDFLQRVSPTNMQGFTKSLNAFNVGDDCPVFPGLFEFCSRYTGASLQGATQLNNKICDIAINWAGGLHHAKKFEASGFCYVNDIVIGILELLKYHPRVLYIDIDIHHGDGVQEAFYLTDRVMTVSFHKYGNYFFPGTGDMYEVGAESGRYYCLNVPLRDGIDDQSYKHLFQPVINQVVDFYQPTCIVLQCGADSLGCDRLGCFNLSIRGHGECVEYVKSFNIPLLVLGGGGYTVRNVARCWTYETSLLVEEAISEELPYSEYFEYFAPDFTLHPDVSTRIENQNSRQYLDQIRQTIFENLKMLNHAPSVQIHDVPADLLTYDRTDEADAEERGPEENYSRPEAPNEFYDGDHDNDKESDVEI
T3 sequence (Q9Y618 395-489 partner limits assumed): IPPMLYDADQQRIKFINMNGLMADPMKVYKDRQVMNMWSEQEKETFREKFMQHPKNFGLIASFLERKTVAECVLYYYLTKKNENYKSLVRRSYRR
Description: as §1, §2

[4] = biological target: T4, HDAC6 (Homo sapiens, UniProt Q9UBN7); experiment: HDAC enzyme assay, HDAC6; type: biochemical; conditions: 2 ng/ml enzyme, 14 μM tripeptide substrate; given as a range
T4 construct: purchased BPS Biosciences
T4 sequence (Q9UBN7 1-1215): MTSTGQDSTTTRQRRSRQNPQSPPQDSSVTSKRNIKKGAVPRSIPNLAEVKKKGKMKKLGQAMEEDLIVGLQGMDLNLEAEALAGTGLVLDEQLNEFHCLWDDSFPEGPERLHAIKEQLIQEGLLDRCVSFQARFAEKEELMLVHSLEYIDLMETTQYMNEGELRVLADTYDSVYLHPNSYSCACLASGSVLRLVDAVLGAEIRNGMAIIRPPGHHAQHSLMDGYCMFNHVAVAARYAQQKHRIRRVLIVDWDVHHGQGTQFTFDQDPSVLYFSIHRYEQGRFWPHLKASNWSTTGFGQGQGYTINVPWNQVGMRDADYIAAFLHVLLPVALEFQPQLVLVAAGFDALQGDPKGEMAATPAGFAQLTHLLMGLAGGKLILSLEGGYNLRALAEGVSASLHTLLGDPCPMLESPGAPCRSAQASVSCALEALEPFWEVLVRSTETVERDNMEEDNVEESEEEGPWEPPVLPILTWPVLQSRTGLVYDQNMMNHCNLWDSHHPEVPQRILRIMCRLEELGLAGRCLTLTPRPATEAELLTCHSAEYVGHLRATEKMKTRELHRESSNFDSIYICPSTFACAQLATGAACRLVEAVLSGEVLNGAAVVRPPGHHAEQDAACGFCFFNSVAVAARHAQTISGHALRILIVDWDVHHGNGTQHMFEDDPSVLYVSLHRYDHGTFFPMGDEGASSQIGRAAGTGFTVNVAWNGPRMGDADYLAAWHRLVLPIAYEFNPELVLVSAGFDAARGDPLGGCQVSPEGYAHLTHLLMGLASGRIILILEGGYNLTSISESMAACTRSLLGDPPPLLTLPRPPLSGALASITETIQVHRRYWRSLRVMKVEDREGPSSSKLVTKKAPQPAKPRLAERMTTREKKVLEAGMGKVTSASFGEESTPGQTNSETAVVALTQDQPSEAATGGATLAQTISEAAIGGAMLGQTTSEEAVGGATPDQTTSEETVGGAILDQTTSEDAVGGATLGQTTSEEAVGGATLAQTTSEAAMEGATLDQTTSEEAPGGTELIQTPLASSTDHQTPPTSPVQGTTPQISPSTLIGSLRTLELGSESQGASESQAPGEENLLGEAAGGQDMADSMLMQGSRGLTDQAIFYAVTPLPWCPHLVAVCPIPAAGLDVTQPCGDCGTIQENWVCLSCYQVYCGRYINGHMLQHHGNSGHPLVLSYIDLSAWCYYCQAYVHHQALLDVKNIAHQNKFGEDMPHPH
Description: as §1, §2

[5] = Rat pharmacokinetic studies; type: in vivo; conditions: male SD rats, IV 1 mg/kg, plasma
Description: Male SD rats were fasted overnight. Compounds of the invention were dissolved in dimethyl acetamide at 10 times the final concentration, then Solutol HS 15 (BASF) was added to a final concentration of 10%. Finally 80% saline was added and vortexed to achieve a clear solution. For the IV dosing three animals were injected via the foot dorsal vein with 1 mg/kg compound. For the PO dosing 5 mg/kg of compound was delivered by oral gavage. Blood was collected via the tail vein into K2EDTA tubes at 5 minutes, 15 minutes, 30 minutes, 1 hour, 2 hours, 4 hours, 8 hours and 24 hours after dosing. The blood was centrifuged at 2000 g for 5 minutes at 4° C. to obtain plasma. The plasma was extracted with acetonitrile and the level of compound was analyzed by LC/MS/MS. The level of compound in plasma was calculated from a standard curve in rat plasma. The IV clearance and area under the curve were calculated using WinNonLin software. The dose adjusted area under the curve for the IV and oral dosing were used to calculate the oral bioavailability.

[6] = Mouse pharmacokinetic studies; type: in vivo; conditions: male C57BL/6 mice, intraperitoneal 5 mg/kg; for Brain AUC: brain homogenate; for AUC / Kp: mouse, ip; for AUC: plasma; for Kp: from AUC values of brain and plasma, read-out: Brain/plasma ratio
Description: Male C57BL/6 mice were fasted overnight. Compounds were dissolved in dimethyl acetamide at 10 times the final concentration, then Solutol HS 15 (BASF) was added to a final concentration of 10%. Finally 80% saline was added and vortexed to achieve a clear solution. Fifteen animals were injected intraperitonealy with 5 mg/kg compound. Blood was collected by retro-orbital bleed at 5 minutes, 15 minutes, 30 minutes, 1 hour, 2 hours, 4 hours, 8 hours and 24 hours after dosing. At 5 minutes, 30 minutes, 1 hour and 4 hours after dosing three animals per time point were sacrificed and brains were removed. The blood was centrifuged at 2000 g for 5 minutes at 4° C. to obtain plasma. Brain samples were homogenized in PBS. The plasma and brain homogenate were extracted with acetonitrile and the level of compound was analyzed by LC/MS/MS. The level of compound in plasma was calculated from a standard curve in rat plasma and the level in brain was calculated from a standard curve in brain homogenate. The area under the curve in plasma and brain were calculated using WinNonLin software. The brain to plasma ratio was determined using the area under the curve values for the two compartments.

T1 sequence (Q13547 whole entry): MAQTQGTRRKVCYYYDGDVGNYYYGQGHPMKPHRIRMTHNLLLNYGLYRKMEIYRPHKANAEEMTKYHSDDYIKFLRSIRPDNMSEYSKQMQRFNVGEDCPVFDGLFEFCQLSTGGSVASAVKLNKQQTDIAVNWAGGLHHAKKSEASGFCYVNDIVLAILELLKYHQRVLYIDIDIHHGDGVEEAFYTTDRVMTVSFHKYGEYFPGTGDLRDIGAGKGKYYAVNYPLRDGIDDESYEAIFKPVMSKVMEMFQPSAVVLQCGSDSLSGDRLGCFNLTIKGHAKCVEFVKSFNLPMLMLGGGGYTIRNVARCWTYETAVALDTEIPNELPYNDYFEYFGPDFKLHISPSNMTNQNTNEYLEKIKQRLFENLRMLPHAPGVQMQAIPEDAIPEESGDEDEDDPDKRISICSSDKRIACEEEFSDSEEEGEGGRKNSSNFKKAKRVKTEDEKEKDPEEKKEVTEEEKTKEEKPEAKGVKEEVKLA

Structure (SMILES)	IC50 [1]	IC50 [2]	IC50 [3]	IC50 [4]	clearance [5]	Brain AUC [6]	AUC [6]	Kp [6]
COc1ccc(Cl)cc1CNc1ccc(C(=O)NO)cc1 [Compound 001]	200 to 400 nM	200 to 400 nM	200 to 400 nM	1 to 6 nM	16.7 to 83.3 mL/min/kg	–	–	–
O=C(NO)c1ccc(NC(c2ccccc2)c2ccccc2)cn1 [Compound 002]	–	–	–	–	–	450 to 600 ng·h/mL	200 to 250 ng·h/mL	1 to 5
O=C(NO)c1ccc(NCc2cc(Cl)ccc2Cl)cc1 [Compound 004]	100 to 200 nM	100 to 200 nM	100 to 200 nM	4 to 8 nM	–	–	–	–
COc1ccc(F)cc1CNc1ccc(C(=O)NO)cc1 [Compound 005]	500 to 800 nM	500 to 800 nM	500 to 800 nM	1 to 6 nM	167 to 333 mL/min/kg	–	–	–
COc1ccc(OC)c(CNc2ccc(C(=O)NO)cc2)c1 [Compound 006]	450 to 600 nM	900 to 1100 nM	900 to 1100 nM	30 to 40 nM	–	–	–	–
O=C(NO)c1ccc(NCc2cc(F)ccc2F)cc1 [Compound 007]	450 to 600 nM	450 to 600 nM	700 to 800 nM	4 to 8 nM	–	–	–	–
O=C(NO)c1ccc(NC2(c3cc(F)ccc3F)CCOCC2)cc1 [Compound 008]	150 to 250 nM	200 to 300 nM	1000 to 1100 nM	0.1 to 1 nM	83.3 to 167 mL/min/kg	–	–	–
O=C(NO)c1ccc(NC2(c3ccccc3)CC2)cc1 [Compound 009]	50 to 100 nM	250 to 350 nM	400 to 500 nM	0.5 to 2.5 nM	50 to 117 mL/min/kg	–	–	–
O=C(NO)c1ccc(NC2(c3ccccc3)CCCCC2)cc1 [Compound 010]	1000 to 2000 nM	1500 to 2000 nM	6000 to 7000 nM	4 to 8 nM	33.3 to 66.7 mL/min/kg	–	–	–
O=C(NO)c1ccc(NCc2ccccc2)cc1 [Compound 011]	700 to 800 nM	800 to 900 nM	1200 to 1300 nM	15 to 25 nM	91.7 to 117 mL/min/kg	–	–	–
O=C(NO)c1ccc(NCc2ccccc2)cn1 [Compound 012]	–	–	–	–	–	100 to 150 ng·h/mL	75 to 125 ng·h/mL	1 to 3
O=C(NO)c1ccc(N(c2ccccc2)c2ccccc2)cn1 [Compound 013]	–	–	–	–	–	600 to 800 ng·h/mL	150 to 250 ng·h/mL	2 to 6
